# Patent US6488966B2, “Composition and method for reducing the risk of carcinogenesis” (The Trustees of Dartmouth College, priority 1998, dated 2002)
# Like-named read-outs stand apart in the source and are kept apart here.
# Legend:
# [1] = system: colorectal adenomas
# Excerpt: Dartmouth was the coordinating center and the University of Minnesota was the pathology center. Human subjects committees at each center approved the study protocol; an independent safety and data monitoring committee reviewed the study semi-annually.
# Staff at each clinical center monitored colonoscopy and pathology records at associated endoscopy units to identify patients with at least one histologically-confirmed large bowel adenoma removed within three months of recruitment, and with the entire large bowel mucosa subsequently examined and judged free of remaining polyps.
# (§1) We reviewed data from 2,918 apparently eligible patients. […] The trial was double-blind; neither subjects nor study staff were told the subjects' treatment assignments.
# Subjects received two follow-up colonoscopies as part of their routine clinical care, generally by the same physician who conducted the qualifying exam. The first follow-up examination was planned for approximately one year after the qualifying colonoscopy (about nine months after randomization), and a second follow-up examination was planned for thirty-six months after that. Large bowel endoscopy was otherwise discouraged unless clinically indicated (e.g., for rectal bleeding). Follow-up examinations were considered “adequate” if the entire large bowel mucosa was visualized, and no polyps remained at the end of the procedure. We designated the time from randomization to the first follow-up exam as the first study interval, and the period after the first follow-up exam up to (and including) the second follow-up colonoscopy as the second study interval.
# At each colonoscopy, the endoscopist recorded the size and location of all mucosal lesions, using standard clinical technique. […] In cases of disagreement, we accepted the study pathologist's diagnosis.
# The primary endpoint of the trial was the proportion of subjects having at least one adenoma detected during the second study interval, i.e., after the first follow-up colonoscopy, up to and including the second follow-up examination (including adenomas detected during interim endoscopies).
# (§2) For our statistical analyses, we compared proportions using Fisher's exact test, and measured data using t-tests or rank tests (Snedecor and Cochran, Statistical Methods, Seventh Edition, Ames: Iowa State University Press, 1980). […] To address the first issue, we used overdispersed log-linear quasi-likelihood models programmed in SPlus (Seattle) to provide unadjusted and adjusted estimates and confidence intervals for the relative risk of at least one recurrent adenoma (McCullagh and Nelder, Generalized Linear Models (Second Edition), Chapman-Hall, 1989). […] Co-variates included age (linear term), gender, the lifetime number of adenomas before study entry, clinical center, and the length of the surveillance interval. Possible interactions were considered using product interaction terms. Subgroup analyses included investigation of subjects above and below the median of the calorie-adjusted intake (Willet, Nutritional Epidemiology, Oxford University Press, 1990) of selected nutrients. […] All P-values were two-sided.
# [2] = Description: as §1
# At enrollment and at the time of each of the two follow-up colonoscopies, we obtained venous blood specimens in mineral-free tubes. Serum was initially stored at −20° C. or lower, pending shipment to Dartmouth for storage at −70° C. until analysis. At enrollment and the end of the study, we also assessed subjects' diet with a validated food frequency questionnaire (Block et al., Am. J. Epidemiol., 124:453-69, 1986). Every six months, we sent patients questionnaires regarding adherence to study agents; use of medications, over-the-counter drugs and nutritional supplements; and the occurrence of symptoms, illnesses, and hospitalizations. Recruitment into the study began in November 1988 and ended in April 1992. Follow-up ended in December 1996.
# as §2
# [3] = at least one endoscopy, study exams
# [4] = at or before the first follow-up
# [5] = calcium vs placebo, 913 subjects with at least one study colonoscopy
# [6] = calcium vs placebo, completed the study, 2nd study interval
# [7] = calcium vs placebo, completed the trial, first study interval
# [8] = calcium vs placebo, second study interval
# [9] = completed the study, 1st or 2nd study interval
# [10] = completed the study, 1st study exam
# [11] = completed the study, 2nd study exam
# [12] = completed the study, 2nd study interval (main risk period)
structure (smiles),measurement,setting,value
"O=C([O-])[O-].[Ca+2] [calcium, calcium carbonate]",Mean number of adenomas,"[1]; at least one endoscopy, 1st or 2nd interval",0.92
same,% with one or more adenomas,[1]; [3],42.3%
same,Mean number of adenomas,[1]; [3],0.86
same,participants with an adenoma with severe atypia removed,[1]; [4],one
same,patients with invasive cancer,[1]; [4],2
same,Ratio of the mean number of adenomas,"[1]; calcium vs placebo, adjusted, completed the study (832 subjects), 2nd study interval",0.76
same,unadjusted ratio of the average numbers of adenomas,[1]; [5],0.74
same,unadjusted risk ratio of at least one adenoma after randomization,[1]; [5],0.85
same,unadjusted ratio of the average number of adenomas,[1]; [6],0.75
same,unadjusted risk ratio for at least one adenoma,[1]; [6],0.83
same,unadjusted ratio of the average numbers of adenomas,[1]; [7],0.73
same,unadjusted risk ratio for at least one adenoma,[1]; [7],0.77
same,unadjusted risk ratio for at least one adenoma 0.5 cm or greater versus no adenomas,[1]; [8],0.87
same,"unadjusted risk ratio, largest adenoma less than 0.5 cm versus no adenomas",[1]; [8],0.75
same,% with one or more adenomas,[1]; [9],44.7%
same,Mean number of adenomas,[1]; [9],0.98
same,% with one or more adenomas,[1]; [10],24.4%
same,Mean number of adenomas,[1]; [10],0.40
same,Mean number of adenomas,"[1]; completed the study, 1st study interval",0.43
same,% with one or more adenomas,[1]; [11],30.1%
same,Mean number of adenomas,[1]; [11],0.51
same,mean size of the largest adenoma,"[1]; completed the study, 2nd study interval",0.4 cm
same,% with one or more adenomas,[1]; [12],31.1%
same,Mean number of adenomas,[1]; [12],0.55
same,% with one or more adenomas,"[1]; completed the study, 2nd study interval (main risk period), listed as CALCIUM",31.1%
same,number of patients with at least one colorectal adenoma,"[1]; completed the study, main risk period (2nd study interval)",127
same,number of subjects with at least one adenoma,"[1]; completed the trial, up to and including the first follow-up exam",103
same,adenomas with severe atypia removed,[1]; during the main risk period,no adenomas with severe atypia were removed
same,subjects with invasive large bowel cancer,[1]; during the main risk period,1
same,subjects whose largest adenoma was less than 0.5 cm,[1]; second study interval,70
same,subjects with an adenoma 0.5 cm or greater,[1]; second study interval,57
same,% with one or more adenomas,"[1]; subjects who completed the study (409 calcium), 1st study interval (randomization to first follow-up colonoscopy)",25%
same,% with one or more adenomas,"[1]; subjects who completed the study (409 calcium), 1st study interval (randomization to first follow-up colonoscopy), listed as CALCIUM",25.2%
same,% with one or more adenomas,"[1]; subjects who had at least one endoscopy (454 calcium), 1st or 2nd interval",43.2%
same,"Hospitalized: All cancer, %",[2]; after randomization,(3.2) %
same,"Hospitalized: Cardiac disease, %",[2]; after randomization,(10.8) %
same,"Hospitalized: Gastrointestinal disease, %",[2]; after randomization,(8.2) %
same,"Hospitalized: Other, %",[2]; after randomization,(27.2) %
same,"Hospitalized: Stroke, %",[2]; after randomization,(2.6) %
same,"Stopped treatment because of perceived toxicity, %",[2]; after randomization,(2.6) %
same,patients diagnosed with definite or probable urinary stones,[2]; after randomization,Two
same,"Subjects Hospitalized, %","[2]; after randomization, any reason",(37.1) %
same,toxicity (in words),"[2]; calcium supplementation during the trial, listed as calcium carbonate",minimal
same,frequency of digestive symptoms (including constipation),[2]; calcium vs placebo,did not differ materially
same,medical complaints and complications (in words),[2]; calcium vs placebo,not associated with treatment assignment
